Experimental data taken from ChEMBL document CHEMBL1201862, “PubChem BioAssay data set” (2004).
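1) Cells in 96-well plates. 2) Compound, 48 h, 5 concentrations. 3) Linear interpolation between surrounding doses. 4) Unreached endpoint = highest concentration. The concentration for 50% growth inhibition is given as GI50.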 Activity calls are given as the source filed them. Cut-off read from the data, not from the text of the source: active = GI50 up to about 1.1 µM and inactive = higher.

Key:
Assay in all cases: NCI tumour cell line growth inhibition, 48 h
[1] = test system: DMS-273
[2] = test system: M19-MEL
[3] = test system: HOP-18
[4] = test system: DLD-1
[5] = test system: KM-20L2
[6] = test system: SNB-78
[7] = test system: XF498
[8] = test system: DMS-114
[9] = test system: RXF 631

SMILES	GI50 [1]	GI50 [2]	GI50 [3]	GI50 [4]	GI50 [5]	GI50 [6]	GI50 [7]	GI50 [8]	GI50 [9]
O=C(CCc1cc(-c2ccccc2)nc(S)n1)N(Cc1ccccc1)Cc1ccccc1	> 100 µM (inactive)	> 100 µM (inactive)	> 100 µM (inactive)	> 100 µM (inactive)	> 100 µM (inactive)	> 100 µM (inactive)	> 100 µM (inactive)	> 100 µM (inactive)	–
O/N=C\C(=N/O)Nc1ccc(Cc2ccc(NC(/C=N\O)=N/O)cc2)cc1	43.9 µM (inactive)	47 µM (inactive)	37.9 µM (inactive)	23.9 µM (inactive)	44.3 µM (inactive)	> 100 µM (inactive)	71.3 µM (inactive)	69.3 µM (inactive)	–
COC(=O)/C(=N/Nc1cccc(Cl)c1)C(C(=O)C(=O)Nc1cccc(Cl)c1C)c1nc2ccccc2nc1C (centres undefined)	–	54 µM (inactive)	–	34.5 µM (inactive)	32 µM (inactive)	–	–	45 µM (inactive)	–
COC1CC(OS(=O)(=O)c2ccc([N+](=O)[O-])cc2)C(OC(=O)c2ccccc2)C(C)O1 (centres undefined)	> 100 µM (inactive)	> 100 µM (inactive)	> 100 µM (inactive)	> 100 µM (inactive)	> 100 µM (inactive)	> 100 µM (inactive)	31.8 µM (inactive)	–	58.5 µM (inactive)
NCCn1ccc(NC(c2ccccc2)(c2ccccc2)c2ccccc2)nc1=O	–	20.9 µM (inactive)	> 100 µM (inactive)	63.1 µM (inactive)	15.7 µM (inactive)	20.6 µM (inactive)	13.4 µM (inactive)	18.6 µM (inactive)	–
CCOC(=O)c1cccnc1C(OC(C)=O)OC(C)=O	> 100 µM (inactive)	> 100 µM (inactive)	> 100 µM (inactive)	> 100 µM (inactive)	> 100 µM (inactive)	> 100 µM (inactive)	> 100 µM (inactive)	> 100 µM (inactive)	–
CCCOP1(=O)C=C(O)C(Cl)=C(C)C1 (centres undefined)	> 100 µM (inactive)	> 100 µM (inactive)	–	> 100 µM (inactive)	> 100 µM (inactive)	> 100 µM (inactive)	> 100 µM (inactive)	–	–
C=CC(=O)C#CC#CC/C=C\CCCCCCC	> 20.6 µM (inactive)	> 20.6 µM (inactive)	–	8.79 µM (inactive)	> 20.6 µM (inactive)	10.3 µM (inactive)	–	10.3 µM (inactive)	–
COc1ccc(/C=N/NC(=O)CSc2nc(-c3ccccc3)c(-c3ccccc3)[nH]2)cc1OC	20.4 µM (inactive)	18.4 µM (inactive)	–	42.6 µM (inactive)	19.1 µM (inactive)	–	–	46.1 µM (inactive)	–
O=C1CCC(=O)C(C(=O)CCC(=O)Nc2cccc(Cl)c2)C1 (centres undefined)	–	> 100 µM (inactive)	> 100 µM (inactive)	> 100 µM (inactive)	71 µM (inactive)	–	> 100 µM (inactive)	–	–
COC(=O)CSc1nnc(-c2ccccc2)[nH]1	> 100 µM (inactive)	> 100 µM (inactive)	> 100 µM (inactive)	> 100 µM (inactive)	> 100 µM (inactive)	> 100 µM (inactive)	–	> 100 µM (inactive)	–
COc1ccc(C2S/C(=C\c3ccccc3O)C(=O)N2NC(=O)Cc2ccccc2)cc1 (centres undefined)	> 100 µM (inactive)	> 100 µM (inactive)	> 100 µM (inactive)	> 100 µM (inactive)	–	–	–	74.5 µM (inactive)	–
COC(=O)C(CC(=O)Nc1ccc(Cl)c(Cl)c1)C(=O)C(=O)NC1C2CC3CC(C2)CC1C3 (centres undefined)	> 100 µM (inactive)	> 100 µM (inactive)	78.3 µM (inactive)	–	> 100 µM (inactive)	> 100 µM (inactive)	–	> 100 µM (inactive)	–
COc1ccc(C2NC3=C(CCCC3)N2)cc1	54.2 µM (inactive)	41.6 µM (inactive)	–	88.1 µM (inactive)	31.3 µM (inactive)	> 100 µM (inactive)	59 µM (inactive)	75.5 µM (inactive)	–
O=C1C(=O)N(c2ccc(Cl)cc2)C(=O)/C(=N/c2cccc3c(=O)[nH][nH]c(=O)c23)C1c1nc2ccccc2o1 (centres undefined)	> 100 µM (inactive)	> 100 µM (inactive)	> 100 µM (inactive)	> 100 µM (inactive)	> 100 µM (inactive)	> 100 µM (inactive)	–	–	> 100 µM (inactive)
CCN(CC)c1ccc(/C=C2/C[N+](C)(C)C/C(=C/c3ccc(N(CC)CC)cc3)C2=O)cc1	–	1.45 µM (inactive)	6.61 µM (inactive)	9.59 µM (inactive)	2.59 µM (inactive)	2.82 µM (inactive)	2.48 µM (inactive)	1.41 µM (inactive)	> 30.3 µM (inactive)
O=S1(=O)CS(=O)(=O)OCCO1	51.1 µM (inactive)	48.8 µM (inactive)	> 100 µM (inactive)	54.7 µM (inactive)	76.6 µM (inactive)	17.4 µM (inactive)	15 µM (inactive)	37.5 µM (inactive)	47.8 µM (inactive)
COC(=O)/C(=C/c1ccc(OC)cc1)C(C(=O)O)=C(C)C	> 100 µM (inactive)	> 100 µM (inactive)	> 100 µM (inactive)	> 100 µM (inactive)	> 100 µM (inactive)	> 100 µM (inactive)	–	> 100 µM (inactive)	–
CC1OC(OCC2OC(Oc3c(-c4ccc(O)cc4)oc4cc(O)cc(O)c4c3=O)C(OC3OCC(O)(CO)C3O)C(O)C2O)C(O)C(O)C1O (centres undefined)	49.2 µM (inactive)	21.7 µM (inactive)	> 100 µM (inactive)	36.8 µM (inactive)	> 100 µM (inactive)	> 100 µM (inactive)	–	32 µM (inactive)	> 100 µM (inactive)
CCOC(=O)c1oc2c(OC)ccc3c2c1CCC3	> 100 µM (inactive)	> 100 µM (inactive)	–	> 100 µM (inactive)	> 100 µM (inactive)	> 100 µM (inactive)	> 100 µM (inactive)	> 100 µM (inactive)	> 100 µM (inactive)
CCOC(=O)C1S/C(=N\c2ccccc2)N=C1C (centres undefined)	–	> 100 µM (inactive)	> 100 µM (inactive)	49.9 µM (inactive)	55.7 µM (inactive)	83 µM (inactive)	> 100 µM (inactive)	59 µM (inactive)	> 100 µM (inactive)
CC[C@]12C=CCN3CCC4(c5cc([C@@]6(C(=O)OC)CC7CN(CCc8c6[nH]c6ccccc86)CC6CCCCC67)c(OC)cc5N(C)C4[C@](O)(C(=O)OC)C1OC(C)=O)[C@@H]32 (some centres undefined)	< 0.01 µM (active)	< 0.01 µM (active)	–	0.0269 µM (active)	< 0.01 µM (active)	< 0.01 µM (active)	0.0469 µM (active)	< 0.01 µM (active)	–
O=Cc1ccc(-c2cccs2)s1	> 100 µM (inactive)	> 100 µM (inactive)	> 62.8 µM (inactive)	> 63.1 µM (inactive)	47.9 µM (inactive)	> 100 µM (inactive)	4.33 µM (inactive)	> 90.8 µM (inactive)	5.08 µM (inactive)
CN(C)CCNc1ccc2nnn3c4ccccc4c(=O)c1c23	3.2 µM (inactive)	2.86 µM (inactive)	–	3.61 µM (inactive)	2.68 µM (inactive)	6.34 µM (inactive)	6.38 µM (inactive)	4.07 µM (inactive)	1.81 µM (inactive)
NC(C(=O)O)c1ccc(C(=O)O)cc1 (centres undefined)	–	> 100 µM (inactive)	–	> 100 µM (inactive)	> 100 µM (inactive)	> 100 µM (inactive)	> 100 µM (inactive)	> 100 µM (inactive)	> 100 µM (inactive)
C/C=C/C1=C(Cl)C(=O)[C@@H](Cl)[C@@]1(O)C(=O)OC [(+)-CRYPTOSPORIPSIN]	3.54 µM (inactive)	2.55 µM (inactive)	4.09 µM (inactive)	2.28 µM (inactive)	4.68 µM (inactive)	5.18 µM (inactive)	2.82 µM (inactive)	–	10.5 µM (inactive)
